Legend:
Type in all cases: in vivo
[1] = test system: Zea mays (ZEAMX); experiment: Pre-emergence herbicidal test; details: 1000 g/ha, evaluated after 13 days
[2] = test system: Echinochloa crus-galli (ECHCG); experiment: Pre-emergence herbicidal test; details: 1000 g/ha, evaluated after 13 days
[3] = test system: Zea mays (ZEAMX); experiment: Post-emergence herbicidal test; details: 1000 g/ha unless otherwise stated, evaluated after 13 days
In short: (§1)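 Damage score (0–5; 5=81-100%, 1=10-20%, 0=0%) read 13 d after spraying. Spray: acetone/water 50:50 + 0.5% Tween 20, 1000 g/ha unless stated.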

[4] = test system: Abutilon theophrasti (ABUTH); experiment: Post-emergence herbicidal test; details: 1000 g/ha unless otherwise stated, evaluated after 13 days
In short: as §1

[5] = test system: Amaranthus retoflexus (AMARE); experiment: Post-emergence herbicidal test; details: 1000 g/ha unless otherwise stated, evaluated after 13 days
In short: as §1

[6] = test system: Echinochloa crus-galli (ECHCG); experiment: Post-emergence herbicidal test; details: 1000 g/ha unless otherwise stated, evaluated after 13 days
In short: as §1

[7] = test system: Setaria faberi (SETFA); experiment: Post-emergence herbicidal test; details: 1000 g/ha unless otherwise stated, evaluated after 13 days
In short: as §1

[8] = test system: Ipomoea hederacea (IPOHE); experiment: Post-emergence herbicidal test; details: 1000 g/ha unless otherwise stated, evaluated after 13 days
In short: as §1

[9] = test system: Amaranthus retoflexus (AMARE); experiment: Pre-emergence herbicidal test; details: 1000 g/ha, evaluated after 13 days
[10] = test system: Abutilon theophrasti (ABUTH); experiment: Pre-emergence herbicidal test; details: 1000 g/ha, evaluated after 13 days
[11] = test system: Setaria faberi (SETFA); experiment: Pre-emergence herbicidal test; details: 1000 g/ha, evaluated after 13 days
[12] = test system: Ipomoea hederacea (IPOHE); experiment: Pre-emergence herbicidal test; details: 1000 g/ha, evaluated after 13 days

| SMILES | percentage damage caused to the plant, five-point scale, ZEAMX [1] | percentage damage caused to the plant, five-point scale, ECHCG [2] | percentage damage caused to the plant, ZEAMX (five-point scale) [3] | percentage damage caused to the plant, ABUTH (five-point scale) [4] | percentage damage caused to the plant, AMARE (five-point scale) [5] | percentage damage caused to the plant, ECHCG (five-point scale) [6] | percentage damage caused to the plant, SETFA (five-point scale) [7] | percentage damage caused to the plant, IPOHE (five-point scale) [8] | percentage damage caused to the plant, five-point scale, AMARE [9] | percentage damage caused to the plant, five-point scale, ABUTH [10] | percentage damage caused to the plant, five-point scale, SETFA [11] | percentage damage caused to the plant, five-point scale, IPOHE [12] |
| --- | --- | --- | --- | --- | --- | --- | --- | --- | --- | --- | --- | --- |
| CS(=O)(=O)c1cccc2c1c(=O)c(C(=O)O)nn2-c1ccc(Cl)cc1F [Compound P41, 1-(4-chloro-2-fluoro-phenyl)-5-methylsulfonyl-4-oxo-cinnoline-3-carboxylic acid] | 1 (1=10-20%) | 2 (2=21-40%) | 1 (1=10-20%) | 1 (1=10-20%) | 1 (1=10-20%) | 4 (4=61-80%) | 4 (4=61-80%) | 1 (1=10-20%) | 1 (1=10-20%) | 1 (1=10-20%) | 4 (4=61-80%) | 1 (1=10-20%) |
| CCCCCCCCCOC(=O)c1nn(-c2ccc(OC(F)(F)F)cc2)c2cccc(S(C)(=O)=O)c2c1=O [Compound P82, nonyl 5-methylsulfonyl-4-oxo-1-[4-(trifluoromethoxy)phenyl]cinnoline-3-carboxylate] | 0 (0=0%) | 1 (1=10-20%) | 1 (1=10-20%) | 1 (1=10-20%) | 0 (0=0%) | 1 (1=10-20%) | 0 (0=0%) | 1 (1=10-20%) | 0 (0=0%) | 0 (0=0%) | 3 (3=41-60%) | 0 (0=0%) |
| COc1cc(S(C)(=O)=O)c2c(=O)c(C(=O)O)nn(-c3ccc(OC(F)(F)F)cc3)c2c1 [Compound P19, 7-methoxy-5-methylsulfonyl-4-oxo-1-[4-(trifluoromethoxy)phenyl]cinnoline-3-carboxylic acid] | 0 (0=0%) | 2 (2=21-40%) | 1 (1=10-20%) | 1 (1=10-20%) | 1 (1=10-20%) | 2 (2=21-40%) | 3 (3=41-60%) | 1 (1=10-20%) | 1 (1=10-20%) | 0 (0=0%) | 5 (5=81-100%) | 0 (0=0%) |
| COC(C)(C)CCOC(=O)c1nn(-c2ccc(OC(F)(F)F)cc2)c2cccc(S(C)(=O)=O)c2c1=O [Compound P85, (3-methoxy-3-methyl-butyl) 5-methysulfonyl-4-oxo-1-[4-(trifluoromethoxy)phenyl]cinnoline-3-carboxylate] | 0 (0=0%) | 4 (4=61-80%) | 1 (1=10-20%) | 1 (1=10-20%) | 1 (1=10-20%) | 3 (3=41-60%) | 4 (4=61-80%) | 0 (0=0%) | 0 (0=0%) | 0 (0=0%) | 4 (4=61-80%) | 0 (0=0%) |
| COC(=O)COC(=O)c1nn(-c2ccc(OC(F)(F)F)cc2)c2cccc(S(C)(=O)=O)c2c1=O [Compound P81, (2-methoxy-2-oxo-ethyl) 5-methylsulfonyl-4-oxo-1-[4-(trifluoromethoxy)phenyl]cinnoline-3-carboxylate] | 0 (0=0%) | 4 (4=61-80%) | 1 (1=10-20%) | 1 (1=10-20%) | 1 (1=10-20%) | 3 (3=41-60%) | 4 (4=61-80%) | 0 (0=0%) | 0 (0=0%) | 0 (0=0%) | 5 (5=81-100%) | 0 (0=0%) |
| CC(C)Cc1ccc2c(c1S(C)(=O)=O)c(=O)c(C(=O)O)nn2-c1ccc(OC(F)(F)F)cc1 [Compound P15, 6-isobutyl-5-methylsulfonyl-4-oxo-1-[4-(trifluoromethoxy)phenyl]cinnoline-3-carboxylic acid] | 0 (0=0%) | 1 (1=10-20%) | 1 (1=10-20%) | 1 (1=10-20%) | 1 (1=10-20%) | 1 (1=10-20%) | 1 (1=10-20%) | 0 (0=0%) | 1 (1=10-20%) | 1 (1=10-20%) | 1 (1=10-20%) | 0 (0=0%) |
| CCOC(=O)c1nn(-c2ccc(OC(F)(F)F)cc2)c2cc(C#N)cc(S(C)(=O)=O)c2c1=O [Compound P48, ethyl 7-cyano-5-methylsulfonyl-4-oxo-1-[4-(trifluoromethoxy)phenyl]cinnoline-3-carboxylate] | 0 (0=0%) | 0 (0=0%) | 0 (0=0%) | 0 (0=0%) | 0 (0=0%) | 0 (0=0%) | 0 (0=0%) | 0 (0=0%) | 0 (0=0%) | 0 (0=0%) | 0 (0=0%) | 0 (0=0%) |
| CCOC(=O)c1nn(-c2ccc(OC(F)(F)F)cc2)c2cccc([S+]([O-])C3CC3)c2c1=O (stereo not drawn) [Compound P32, ethyl 5-cyclopropylsulfinyl-4-oxo-1-[4-(trifluoromethoxy)phenyl]cinnoline-3-carboxylate] | 0 (0=0%) | 1 (1=10-20%) | 1 (1=10-20%) | 0 (0=0%) | 0 (0=0%) | 1 (1=10-20%) | 1 (1=10-20%) | 0 (0=0%) | 0 (0=0%) | 0 (0=0%) | 2 (2=21-40%) | 0 (0=0%) |
